Results published in patent US6566337B1, “Compounds with growth hormone releasing properties” (Novo Nordisk A/S, priority 1998, dated 2003).
Square brackets hold non-standard residues; d marks the D form. Peptide text beside a SMILES is read from it. d2Nal = N[C@H](Cc1ccc2ccccc2c1)C(=O)O

What was measured:
[1] = Pharmacokinetics in fasted Beagle dogs; format: in vivo; conditions: dog, plasma; for half-life: in 5% glucose solution, non-compartmental, read-out: Plasma half-life T½ (converted); for bioavailability: intravenous and oral administration in 5% glucose solution, read-out: Oral bioavailability Fpo
Experimental: The pharmakokinetic data were obtained by following procedure:
The pharmacokinetics of the test compounds were investigated in fasted Beagle dogs.
Intravenous and oral administration of the test compound, in 5% glucose solution, was separated by a one weeks washout.
Blood samples were collected immediately before drug administration (time zero) and than 0.08, 0.25, 0.50, 0.75, 1.0, 1.5, 2.0, 3.0, 4.0, 5.0, and 6.0 hours after administration.
The plasma samples were stored frozen (<−18° C.) pending analysis.
An HPLC method with solid phase extraction and UV detection was used for the quantification of the compound in plasma.
The pharmacokinetic parameters for compounds were calculated by non-compartmental methods using the PC based pharmacokinetic software WinNonlin, version 1.1 (Scientific Consulting Inc., Apex, N.C., USA).

[2] = tested on: trypsin, chymotrypsin and elastase; assay: Metabolic stability in pancreatic enzyme mix (ESMS, SIM signal); conditions: chymotrypsin and elastase in 100 mM ammoniumbicarbonate pH 8.0, 37° C., 24 h, decrease in SIM signal
Experimental: (§1) Compounds is dissolved at a concentration of 1 mg/ml in water. 25 ml of this solution is added to 175 ml of the respective enzyme-solution (resulting in an enzyme:substrate ratio (w/w) of approximately 1:5). The solution is left at 37° C. overnight. 10 ml of the various degradation solutions is analyzed against a corresponding zero-sample using flow injection electrospray mass spectrometry (ESMS) with selected ion monitoring of the molecular ion. If the signal has decreased more than 20% compared to the zero-sample, the remainder of the solution is analyzed by HPLC and mass spectrometry in order to identify the extent and site(s) of degradation precisely.
Pancreatic enzyme mix: trypsin, chymotrypsin and elastase in 100 mM ammoniumbicarbonate pH 8.0 (all concentrations 0.025 mg/ml).
(§2) Mass spectrometric analysis was performed using two different mass spectrometers. A Sciex API III triple quadrupole LC-MS instrument (Sciex instruments, Thornhill, Ontario) equipped with an electrospray ion-source and a Bio-Ion 20 time-of-flight Plasma Desorption instrument (Bio-Ion Nordic AB, Uppsala, Sweden).
(§3) Quantification of the compounds (before and after degradation) was done on the API III instrument using single ion monitoring of the molecular ion in question with flow injection of the analyte. […]

carboxypeptidase Y and B = assay: Metabolic stability in carboxypeptidase mix (ESMS, SIM signal); conditions: carboxypeptidase Y and B in 50 mM ammoniumacetate pH 4.5, 37° C., 24 h, decrease in SIM signal
Experimental: as §1
Carboxypeptidase mix: carboxypeptidase Y and B in 50 mM ammoniumacetate pH 4.5 (all concentrations 0.025 mg/ml).
as §2, §3

Row | half-life [1] | bioavailability [1] | Compound | Pan. enzyme mix (stability) [2] | Carboxy-peptidase mix (stability) (carboxypeptidase Y and B)
1 | 2 h | 34% | CN(CCc1ccccn1)C(=O)[C@@H](Cc1ccccc1)N(C)C(=O)[C@@H](Cc1ccc2ccccc2c1)N(C)C(=O)/C=C/CC(C)(C)N [Example 1, (2E)-5-Amino-5-methylhex-2-enoic acid N-methyl-N-[(1R)-1-(N-methyl-N-{(1R)-1-[N-methyl-N-(2-(2-pyridinyl)ethyl)carbamoyl]-2-phenylethyl}carbamoyl)-2-(2-naphthyl)ethyl]amide] | – | –
2 | 3.89 h | 26% | CN(C(=O)/C=C/CC(C)(C)N)[C@H](Cc1ccc2ccccc2c1)C(=O)N(C)[C@H](Cc1ccccc1)C(=O)NCCc1ccncc1 [Example 408 from WO 9723508] | – | –
3 | – | – | C[C@H](NC(=O)[C@@H](Cc1ccc2ccccc2c1)NC(=O)[C@@H](C)N)C(=O)N[C@@H](Cc1c[nH]c2ccccc12)C(=O)N[C@H](Cc1ccccc1)C(=O)N[C@@H](CCCCN)C(N)=O [GHRP-2] (H-[dA][d2Nal]AW[dF]K-NH2) | − (Unstable (more than 20% decrease in SIM signal after 24 h in degradation solution)) | − (Unstable (more than 20% decrease in SIM signal after 24 h in degradation solution))
4 | – | – | C[C@H](NC(=O)[C@@H](Cc1c[nH]c2ccccc12)NC(=O)[C@@H](N)Cc1c[nH]cn1)C(=O)N[C@@H](Cc1c[nH]c2ccccc12)C(=O)N[C@H](Cc1ccccc1)C(=O)N[C@@H](CCCCN)C(N)=O [GHRP-6] (H-H[dW]AW[dF]K-NH2) | − (Unstable (more than 20% decrease in SIM signal after 24 h in degradation solution)) | − (Unstable (more than 20% decrease in SIM signal after 24 h in degradation solution))
